# Measured values taken from patent US20210106566A1, “PHARMACEUTICAL COMPOSITION FOR TREATING AND/OR PREVENTING PERIPHERAL NEUROPATHY OR SPINAL CORD INJURY” (NATIONAL UNIVERSITY CORPORATION NAGOYA UNIVERSITY, priority 2015, published 2021).
# Columns and labels:
# [1] = system: severely crushed spinal cord model mice; test: Severely crushed spinal cord model mice: motor function with BMS score; assay type: in vivo, mouse; details: for BMS score: 30 mg/kg/day intragastrically
# From the text: Female C57BL/6J mice (8 weeks old; 19.5-22.0 g) were purchased from Charles River. The female C57BL/6J mice were anesthetized by intraperitoneally administering pentobarbital sodium and underwent back incision under a sterile condition to perform laminectomy at the 10th thoracic vertebra. The spinal cord was crushed at 100 kdyn using a tip with a diameter of 1.35 mm on IH Spinal Cord Impactor. After the occurrence of hematoma in the spinal cord was confirmed under a microscope, the wound was closed and 1 ml of physiological saline was subcutaneously injected into the posterior neck region to prevent dehydration. The mice with spinal cord injury were separated into two groups in a blinded fashion. Zonisamide was diluted with olive oil (solvent) to 3 mg/mL and intragastrically administered to mice in one group at 30 mg/kg/day using a disposable probe needle (flexible type, Fuchigami) for consecutive days from the day of surgery. Mice in the other group received only the solvent using a similar procedure for consecutive days. One day after surgery, motor function of mice in both groups was assessed using BMS score (Basso mouse scale; Li et. al. J Neurosurg Spine 4: 165-173 (2006)) in a blinded fashion to select the mice with BMS score of 1 or lower and consider them as severely crushed spinal cord model mice. The mice received 200 mL of water containing trimethoprim (16 mg)/sulfamethoxazole (80 mg) from a feeder to prevent infection for 3 days after surgery. BMS score is scored by rating ankle movement, weight support, stepping, coordinated motion of forelimbs and hindlimbs (coordination), hindlimb position in walking, trunk stability, and tail position, and ranges from 0 to 9; score 0 corresponds to complete paralysis of hindlimb and score 9 corresponds to normal motion; more specifically, BMS score is described as follows: 0: No ankle movement. 1: Slight ankle movement (less than 50% of the range of motion). 2: Extensive ankle movement (equal to and greater than 50% of the range of motion). 3: Plantar placing of the paw or occasional dorsal stepping. 4: Occasional planter stepping with weight support (equal to and less than 50% of forward movement). 5: Frequent or consistent planter stepping (equal to and greater than 50% of forward movement), no coordination of limbs; or frequent or consistent planter stepping, some coordination of limbs, hindlimb paws rotated at initial contact and lift off. 6: Some coordination of limbs, hindlimb paws parallel at initial contact and rotated at lift off; or mostly coordinated, hindlimb paws rotated at initial contact and lift off. […] BMS scores were measured at days 1, 3, 7, 14, 21, and 28 after surgery in a blinded fashion (FIG. 14).
# [2] = system: Erk1/2; test: Western blot of Erk1/2 phosphorylation in primary motor neurons; assay type: cell-based, mouse; details: primary motor neurons, 0, 10, or 20 μmol/L, days 2 and 3
# Experimental: Zonisamide (0, 10, or 20 μmol/L) was added to primary motor neurons 4 hours after the beginning of culture. The cells were rinsed with a buffer (50 mmol/L HEPES pH 7.0, 150 mmol/L NaCl, 1% glycerol, 1% TritonX-100, 1.5 mmol/L MgCl2, 1 mmol/L EGTA, 100 mmol/L NaF, 10 mmol/L sodium pyrophosphate, […], 1 mmol/L PMSF, and 1 mmol/L sodium orthovanadate (V)) at days 2 and 3. Total protein was dissolved in 1× Laemmli buffer, separated on a 10% SDS polyacrylamide gel, and transferred to a polyvinylidene fluoride membrane (Immobilon-P, Millipore). The membrane was washed with Tris-buffered physiological saline with 0.05% Tween 20 (TBS-T) and blocked with TBS-T containing 3% skim milk at room temperature for 1 hour. The membrane was incubated with any of anti-Erk1/2 (#4696, Cell Signaling), anti-phosphorylated Erk1/2 (#4370, Cell Signaling), or anti-phosphorylated JNK1/2/3 (#4668, Cell Signaling) antibody (diluted at 1:1000) at 4° C. overnight. The membrane was washed with TBS-T for 10 minutes three times and incubated with […] secondary antibody conjugated to horseradish peroxidase (HRP, GE Healthcare, 1:6000) at room temperature for 1 hour. The blot was detected with Amersham ECL Western blotting detection reagent (GE Healthcare) and quantified with ImageJ program (http://imagej.nih.gov/ij/index.html).
# [3] = system: JNK1/2/3; test: JNK1/2/3 phosphorylation in NSC34 cells; assay type: cell-based, mouse
compound,measurement,setting,value
"NS(=O)(=O)Cc1noc2ccccc12 [Zonisamide, 3-sulfamoylmethyl-1,2-benzisoxazole]",BMS score,[1]; day 14 after surgery,3.2±0.3
same,BMS score,[1]; day 21 after surgery,3.2±0.4
same,BMS score,[1]; day 28 after surgery,3.7±0.4
same,BMS score compared to the control group,[1]; since day 14 after surgery,significantly higher
same,Erk1/2 phosphorylation,[2],suppress
same,phosphorylation level of JNK1/2/3,[3],slightly increased
